# Results from patent US20250034139A1, “AMINE COMPOUNDS HAVING ANTI-INFLAMMATORY, ANTIFUNGAL, ANTIPARASITIC, AND ANTICANCER ACTIVITY” (PHARMA CINQ, LLC, priority 2013, published 2025).
# What was measured:
# [1] = test system: Vit-D3 activated THP-1 cells; assay: Example B: viable cell count, AC vs chloroquine, +/- LPS; type: cell-based, Human; conditions: LPS-stimulated and basal THP-1 cells, 5 hours
# Description: • 1. Vit-D3 activated THP-1 cells (0.5×10^6 cells in 2 ml) were transferred to the wells of a 24-well dish • 2. Compound AC was added at a concentration of 0.5 μM, 1.0 μM or 5.0 μM • 3. […] LPS from E. coli 0111:B4 (1 ng/ml final concentration) was added to some wells • 5. After 5 hours viable cell count, Acridine Orange (A.O.) uptake and JC-1 mitochondrial loading were determined by fluorescence-activated cell sorting (FACS)
# THP-1 cells (p39) treated with 0.1 μM vit-D3 (100 μM) in DMSO] for 3 days were counted, spun down, resuspended in serum-free RPMI (Lonza 12-115F) and transferred to the wells of two 24-well dishes (0.5×10^6 cells in 2 ml). […] Crude-LPS from E. coli 0111:B4 was added to some wells (1 ng/ml final conc) and the plates placed in a 37 C incubator. 1 μl of Baf A1 (50 nM final conc) was added to one well (no LPS) at T=4 hours to serve as a compensation control for Acridine Orange loading. After 5 hours, 500 μl aliquots of cells were transferred to FACS tubes and viable cell counts, A.O. loading and JC-1 accumulation determined by FACS.
# The tubes were washed twice in DPBS, resuspended in 500 μl DPBS and acquired on the FACSCalibur.
# [2] = test system: PC-3 cells; assay: Example P: PC-3 human hormone-independent prostate cancer xenografts in nude mice; type: in vivo
# Description: Standard models for prostate cancer use subcutaneous xenografts of human prostate cancer cell line. Local measurable tumors are produced at the site of injection of the cells, and they metastasize to critical tissues such as the bones, lungs and liver. Mortality in this model is due to metastases impairing tissue function. Compounds of the invention were assessed for inhibition of tumor growth and reduction or delay of mortality in the PC-3 prostate cancer model, which mimics an advanced, androgen-independent stage of prostate cancer.
# 10 female nude mice (female Hsd:athymic nude-Foxn1^nu) received PC-3 cells (5×10^6 per mouse in 0.1 mL PBS) by subcutaneous injection into the right hind flank. […] Mice received AC or vehicle (saline) via intraperitoneal (i.p.) injection once daily until day 79. • 1. […] Compound AC: 120 μmol/kg/day.
# Tumors were measured with calipers twice per week, and body weights and mortality were also monitored.
# [3] = AC 120 μmol/kg/day i.p. once daily, group of 5
compound,measurement,setting,value
"CCCCCCOc1cccc(CNc2ccnc3ccccc23)c1 [Compound AC, N-[3-(Hexyloxy)benzyl]quinolin-4-amine]",potency of AC relative to chloroquine for inactivating macrophages (THP-1 cells),[1],approximately 100 fold
same,mean body weight at end of study,[2]; AC 120 μmol/kg/day i.p.,28.9 ± 1.3 g
same,mice regressed more than 50% from the initial tumor size,[2]; AC 120 μmol/kg/day i.p.,one
same,mice with no detectable tumors at end of study (complete regressions),[2]; AC 120 μmol/kg/day i.p.,two
same,day of death of the one mouse that died,[2]; [3],65 days
same,number of mice surviving until the study was terminated on day 79,[2]; [3],4
same,"tumor size, average % of initial size","[2]; day 77, AC 120 μmol/kg/day i.p.",949%
same,initial group body weight,[2]; pretreatment,26.8 ± 0.5 g
